Assay results reported in BindingDB's records for doi:10.1124/jpet.104.081497 (Katholieke Universiteit Leuven, 2005).

Molecular target: T1, Promotilin (Homo sapiens, UniProt P12872)
T1 sequence (P12872 whole entry): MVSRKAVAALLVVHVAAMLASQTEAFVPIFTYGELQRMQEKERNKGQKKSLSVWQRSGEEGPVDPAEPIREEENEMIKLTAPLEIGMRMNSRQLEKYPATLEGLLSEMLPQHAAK

Row | Ki [nM] | SMILES
1 | 58.9 | CC[C@H]1OC(=O)[C@H](C)[C@@H](O[C@H]2C[C@@](C)(OC)C[C@H](C)O2)[C@H](C)[C@@H](O[C@@H]2O[C@H](C)C[C@H](N(C)CC)[C@H]2O)[C@@]2(C)CC(C)=C(O2)[C@H](C)[C@@H](O)[C@H]1C [ABT-229]
2 | 3090 | CC[C@H]1OC(=O)[C@H](C)[C@@H](O[C@H]2C[C@@](C)(OC)[C@@H](O)[C@H](C)O2)[C@H](C)[C@@H](O[C@@H]2O[C@H](C)C[C@H](N(C)C)[C@H]2O)[C@](C)(O)C[C@@H](C)C(=O)[C@H](C)[C@@H](O)[C@]1(C)O [CAS_114-07-8]
3 | 2.82 | CC[C@H](C)[C@H](NC(=O)[C@@H]1CCCN1C(=O)[C@@H](NC(=O)[C@@H](N)Cc1ccccc1)C(C)C)C(=O)N[C@@H](Cc1ccccc1)C(=O)N[C@H](C(=O)N[C@@H](Cc1ccc(O)cc1)C(=O)NCC(=O)N[C@@H](CCC(=O)O)C(=O)N[C@@H](CC(C)C)C(=O)N[C@@H](CCC(N)=O)C(=O)N[C@@H](CCCNC(=N)N)C(=O)N[C@@H](CCSC)C(=O)N[C@@H](CCC(N)=O)C(=O)N[C@@H](CCC(=O)O)C(=O)N[C@@H](CCCCN)C(=O)N[C@@H](CCC(=O)O)C(=O)N[C@@H](CCCNC(=N)N)C(=O)N[C@@H](CC(N)=O)C(=O)N[C@@H](CCCCN)C(=O)NCC(=O)N[C@@H](CCC(N)=O)C(=O)O)[C@@H](C)O [CAS_52906-92-0]
4 | 324 | CC[C@H]1OC(=O)[C@H](C)[C@@H](O[C@H]2C[C@@](C)(OC)[C@@H](O)[C@H](C)O2)[C@H](C)[C@@H](O[C@@H]2O[C@H](C)C[C@H](N(C)C)[C@H]2O)[C@]2(C)CC(C)=C(O2)[C@H](C)[C@@H](O)[C@@H]1C [EM-B enolether]
5 | > 10000 | C#CCN(C)C1CC(C)OC(OC2C(C)C(OC3CC(C)(OC)C(O)C(C)O3)C(C)C(=O)OC(CC)C(C)(O)C(O)C(C)C(=O)C(C)CC2(C)O)C1O (stereo unspecified) [ME36]

Row | SMILES | Ki [nM]
6 | CC[C@H]1OC(=O)[C@H](C)[C@@H](O[C@H]2C[C@@](C)(OC)[C@@H](O)[C@H](C)O2)[C@H](C)[C@@H](O[C@@H]2O[C@H](C)C[C@H](N(C)C)[C@H]2O)[C@@]2(C)CC(C)=C(O2)[C@H](C)[C@@H](O)[C@]1(C)O [Erythromycin-A enol ether] | 257
